Data: patent publication US20100113392A1, “METHODS OF USING SAHA AND BORTEZOMIB FOR TREATING MULTIPLE MYELOMA” (priority 2006, published 2010)

Experiments:
[1] = tested on: relapsed and refractory multiple myeloma; assay: Phase I clinical trial of oral Vorinostat plus Bortezomib: response; type: in vivo, human; details: dexamethasone 20 mg p.o. days 4-8 added to Vorinostat and Bortezomib for nonresponders
[2] = Phase I clinical trial of oral Vorinostat plus Bortezomib: MTD, safety and tolerability; type: in vivo, human; details: Vorinostat 500 mg daily with Bortezomib […]^2, cycle 1, 2 patients
Method: This was a multicenter, open label, escalating dose, Phase I study of Vorinostat in combination with intravenous Bortezomib injection in patients eligible for Bortezomib therapy. […] Patients on Dose Levels 1-5 were administered Bortezomib as an intravenous (IV) bolus on Days 1, 4, 8 and 11.
At the beginning of the study, five 3-patient cohorts were evaluated at various dose levels as outlined in the Table 1 and Table 2 below.
In the absence of treatment delays due to adverse events, treatment continued for 8-cycles or until one of the following criteria applied: • a) disease progression • b) intercurrent illness that prevents further administration of treatment • c) unacceptable adverse events • d) patient decides to withdraw from the study • e) general or specific changes in the patient's condition render the patient unacceptable for further treatment in the judgment of the investigator. • f) if the patient achieves a complete remission, they continue on the study for a total of 8 cycles.
Further studies enrolled up to 40 adult patients with multiple myeloma, relapsed or refractory disease. One treatment cycle was 3 weeks or 21 days. […] Although the current FDA approved Bortezomib dose for relapsed myeloma patients to be […], if toxicity occurred, the subsequent dose of Bortezomib was going to be decreased to 0.7 mg/m^2. […] Other Bortezomib dose to be tested was 1.3 mg/m^2.

[3] = Pharmacokinetics of Vorinostat in the Phase I trial

Compound	effect of added dexamethasone on response [1]	toxicities defining the MTD in cycle 1 [2]	effect of administration after Bortezomib on pharmacokinetics ([3]; Vorinostat given after Bortezomib)	dose dependence of pharmacokinetics ([3]; single oral dose, 100-500 mg)
9-fluoro-1′-beta,17,21-trihydroxy-16-alpha-methylpregna-1,4-diene-3,20-dione [dexamethasone]	no upgrade in response	–	–	–
O=C(CCCCCCC(=O)Nc1ccccc1)NO [Vorinostat, N-Hydroxy-N′-phenyl octanediamide]	–	grade 4 prolonged QT interval and grade 4 fatigue	did not affect pharmacokinetics	linear
